Reference: US20230085307A1, “PYRIDAZINONE COMPOUND AND HERBICIDE” (NISSAN CHEMICAL CORPORATION, priority 2019, published 2023)

Tests used:
barnyard grass [1] = test: Test Example 3: herbicidal effect by foliage application, Wagner pot (Table 18, symbol H); format: in vivo, barnyard grass (Echinochloa crus-galli); conditions: 320 g/ha
Method in brief: (§1)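 Plants were sown in alluvial soil held under 0.1–0.5 cm standing water and grown 14 days in a greenhouse at 25–30 °C. An emulsifiable formulation, water-diluted to the set dose, was then sprayed onto the foliage, and effects were scored three weeks later using previously defined criteria.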

Chinese sprangletop = test: Test Example 3: herbicidal effect by foliage application, Wagner pot (Table 18, symbol D); format: in vivo, chinese sprangletop (Leptochloa chinensis); conditions: 320 g/ha
Method in brief: as §1

rice flat sedge = test: Test Example 3: herbicidal effect by foliage application, Wagner pot (Table 18, symbol E); format: in vivo, rice flat sedge (Cyperus iria); conditions: 320 g/ha
Method in brief: as §1

southern crabgrass [2] = test: Test Example 4: herbicidal effect by soil treatment (Table 19, symbol F); format: in vivo, southern crabgrass (Digitaria ciliaris); conditions: AAH 320 g/ha
Method in brief: (§2)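 Seeds were sown in sterilized diluvial soil and covered with about 1.5 cm of soil. An emulsion formulation diluted with water to a predetermined herbicide amount was sprayed evenly onto the soil surface. Plants grew in a greenhouse at 25° C. to 30° C., and the effect was scored three weeks after application using criteria from an earlier test.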

green foxtail [3] = test: Test Example 4: herbicidal effect by soil treatment (Table 19, symbol G); format: in vivo, green foxtail (Setaria viridis); conditions: AAH 320 g/ha
Method in brief: as §2

barnyard grass [4] = test: Test Example 4: herbicidal effect by soil treatment (Table 19, symbol H); format: in vivo, barnyard grass (Echinochloa crus-galli); conditions: AAH 320 g/ha
Method in brief: as §2

wild oat [5] = test: Test Example 4: herbicidal effect by soil treatment (Table 19, symbol I); format: in vivo, wild oat (Avena fatua); conditions: AAH 320 g/ha
Method in brief: as §2

blackgrass [6] = test: Test Example 4: herbicidal effect by soil treatment (Table 19, symbol J); format: in vivo, blackgrass (Alopecurus myosuroides); conditions: AAH 320 g/ha
Method in brief: as §2

Italian ryegrass [7] = test: Test Example 4: herbicidal effect by soil treatment (Table 19, symbol K); format: in vivo, Italian ryegrass (Lolium multiflorum); conditions: AAH 320 g/ha
Method in brief: as §2

windgrass [8] = test: Test Example 4: herbicidal effect by soil treatment (Table 19, symbol L); format: in vivo, windgrass (Apera spica-venti); conditions: AAH 320 g/ha
Method in brief: as §2

velvetleaf [9] = test: Test Example 4: herbicidal effect by soil treatment (Table 19, symbol M); format: in vivo, velvetleaf (Abutilon theophrasti); conditions: AAH 320 g/ha
Method in brief: as §2

redroot pigweed [10] = test: Test Example 4: herbicidal effect by soil treatment (Table 19, symbol N); format: in vivo, redroot pigweed (Amaranthus retroflexus); conditions: AAH 320 g/ha
Method in brief: as §2

lambsquarters [11] = test: Test Example 4: herbicidal effect by soil treatment (Table 19, symbol O); format: in vivo, lambsquarters (Chenopodium album); conditions: AAH 320 g/ha
Method in brief: as §2

chickweed [12] = test: Test Example 4: herbicidal effect by soil treatment (Table 19, symbol P); format: in vivo, common chickweed (Stellaria media); conditions: AAH 320 g/ha
Method in brief: as §2

persian speedwell [13] = test: Test Example 4: herbicidal effect by soil treatment (Table 19, symbol R); format: in vivo, Persian speedwell (Veronica persica); conditions: AAH 320 g/ha
Method in brief: as §2

southern crabgrass [14] = test: Test Example 5: herbicidal effect by foliage application, plastic box (Table 20, symbol F); format: in vivo, southern crabgrass (Digitaria ciliaris); conditions: foliage application, AAH 320 g/ha, three weeks after application
Method in brief: (§3)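 Plants sown in sterilized diluvial soil and grown 14 days in a greenhouse at 25° C to 30° C, then sprayed on the foliage with the compound's emulsion diluted in water to a predetermined herbicide amount. Injury to weeds and crops scored three weeks after application on a visual rating scale.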

green foxtail [15] = test: Test Example 5: herbicidal effect by foliage application, plastic box (Table 20, symbol G); format: in vivo, green foxtail (Setaria viridis); conditions: foliage application, AAH 320 g/ha, three weeks after application
Method in brief: as §3

barnyard grass [16] = test: Test Example 5: herbicidal effect by foliage application, plastic box (Table 20, symbol H); format: in vivo, barnyard grass (Echinochloa crus-galli); conditions: foliage application, AAH 320 g/ha, three weeks after application
Method in brief: as §3

wild oat [17] = test: Test Example 5: herbicidal effect by foliage application, plastic box (Table 20, symbol I); format: in vivo, wild oat (Avena fatua); conditions: foliage application, AAH 320 g/ha, three weeks after application
Method in brief: as §3

blackgrass [18] = test: Test Example 5: herbicidal effect by foliage application, plastic box (Table 20, symbol J); format: in vivo, blackgrass (Alopecurus myosuroides); conditions: foliage application, AAH 320 g/ha, three weeks after application
Method in brief: as §3

Italian ryegrass [19] = test: Test Example 5: herbicidal effect by foliage application, plastic box (Table 20, symbol K); format: in vivo, Italian ryegrass (Lolium multiflorum); conditions: foliage application, AAH 320 g/ha, three weeks after application
Method in brief: as §3

windgrass [20] = test: Test Example 5: herbicidal effect by foliage application, plastic box (Table 20, symbol L); format: in vivo, windgrass (Apera spica-venti); conditions: foliage application, AAH 320 g/ha, three weeks after application
Method in brief: as §3

velvetleaf [21] = test: Test Example 5: herbicidal effect by foliage application, plastic box (Table 20, symbol M); format: in vivo, velvetleaf (Abutilon theophrasti); conditions: foliage application, AAH 320 g/ha, three weeks after application
Method in brief: as §3

redroot pigweed [22] = test: Test Example 5: herbicidal effect by foliage application, plastic box (Table 20, symbol N); format: in vivo, redroot pigweed (Amaranthus retroflexus); conditions: foliage application, AAH 320 g/ha, three weeks after application
Method in brief: as §3

lambsquarters [23] = test: Test Example 5: herbicidal effect by foliage application, plastic box (Table 20, symbol O); format: in vivo, lambsquarters (Chenopodium album); conditions: foliage application, AAH 320 g/ha, three weeks after application
Method in brief: as §3

chickweed [24] = test: Test Example 5: herbicidal effect by foliage application, plastic box (Table 20, symbol P); format: in vivo, common chickweed (Stellaria media); conditions: foliage application, AAH 320 g/ha, three weeks after application
Method in brief: as §3

persian speedwell [25] = test: Test Example 5: herbicidal effect by foliage application, plastic box (Table 20, symbol R); format: in vivo, Persian speedwell (Veronica persica); conditions: foliage application, AAH 320 g/ha, three weeks after application
Method in brief: as §3

CCCC(=O)Oc1c(OC)nn(C)c(=O)c1-c1c(-c2cc(Cl)ccc2OC)sc2ccccc12 [1-179]
herbicidal effect on H (barnyard grass), rating 0-5 (barnyard grass [1]): 4 (Herbicidal rate of 70% or more and less than 90%) | herbicidal effect on D (Chinese sprangletop), rating 0-5 (Chinese sprangletop): 0 (Herbicidal rate of 5% or less (almost no effect)) | herbicidal effect on E (rice flat sedge), rating 0-5 (rice flat sedge): 3 (Herbicidal rate of 40% or more and less than 70%) | F: southern crabgrass, herbicidal effect rating (southern crabgrass [2]): 0 (Herbicidal rate of 5% or less (almost no effect)) | G: green foxtail, herbicidal effect rating (green foxtail [3]): 0 (Herbicidal rate of 5% or less (almost no effect)) | H: barnyard grass, herbicidal effect rating (barnyard grass [4]): 0 (Herbicidal rate of 5% or less (almost no effect)) | I: wild oat, herbicidal effect rating (wild oat [5]): 0 (Herbicidal rate of 5% or less (almost no effect)) | J: blackgrass, herbicidal effect rating (blackgrass [6]): 0 (Herbicidal rate of 5% or less (almost no effect)) | K: Italian ryegrass, herbicidal effect rating (Italian ryegrass [7]): 0 (Herbicidal rate of 5% or less (almost no effect)) | L: windgrass, herbicidal effect rating (windgrass [8]): 0 (Herbicidal rate of 5% or less (almost no effect)) | M: velvetleaf, herbicidal effect rating (velvetleaf [9]): 0 (Herbicidal rate of 5% or less (almost no effect)) | N: redroot pigweed, herbicidal effect rating (redroot pigweed [10]): 3 (Herbicidal rate of 40% or more and less than 70%) | O: lambsquarters, herbicidal effect rating (lambsquarters [11]): 0 (Herbicidal rate of 5% or less (almost no effect)) | P: chickweed, herbicidal effect rating (chickweed [12]): 4 (Herbicidal rate of 70% or more and less than 90%) | R: persian speedwell, herbicidal effect rating (persian speedwell [13]): 4 (Herbicidal rate of 70% or more and less than 90%) | F: southern crabgrass, herbicidal effect (southern crabgrass [14]): 3 (Herbicidal rate of 40% or more and less than 70%) | G: green foxtail, herbicidal effect (green foxtail [15]): 3 (Herbicidal rate of 40% or more and less than 70%) | H: barnyard grass, herbicidal effect (barnyard grass [16]): 3 (Herbicidal rate of 40% or more and less than 70%) | I: wild oat, herbicidal effect (wild oat [17]): 3 (Herbicidal rate of 40% or more and less than 70%) | J: blackgrass, herbicidal effect (blackgrass [18]): 0 (Herbicidal rate of 5% or less (almost no effect)) | K: Italian ryegrass, herbicidal effect (Italian ryegrass [19]): 0 (Herbicidal rate of 5% or less (almost no effect)) | L: windgrass, herbicidal effect (windgrass [20]): 1 (Herbicidal rate of 5% or more and less than 20%) | M: velvetleaf, herbicidal effect (velvetleaf [21]): 2 (Herbicidal rate of 20% or more and less than 40%) | N: redroot pigweed, herbicidal effect (redroot pigweed [22]): 4 (Herbicidal rate of 70% or more and less than 90%) | O: lambsquarters, herbicidal effect (lambsquarters [23]): 3 (Herbicidal rate of 40% or more and less than 70%) | P: chickweed, herbicidal effect (chickweed [24]): 4 (Herbicidal rate of 70% or more and less than 90%) | R: persian speedwell, herbicidal effect (persian speedwell [25]): 4 (Herbicidal rate of 70% or more and less than 90%)
